Laboratory results as given in patent US9815847B2 (Icahn School of Medicine at Mount Sinai, priority 2013, dated 2017).

Experiments:
K562 = test: Cytotoxicity on K562 cancer cell line; type: cell-based; details: Homo sapiens; K562 chronic myelogenous leukemia; 96 h; 0.01-100 μM
Experimental: (§1) The effect of the compounds described herein on tumor cells was determined by the assay described by Latham et al., Oncogene 12:827-837 (1996). Tumor cells K562 (chronic myelogenous leukemia; leukemia cell line +ve for Bcr-Abl) or DU145 (prostate cancer) were plated in 12-well dishes at a cell density of 2.5×10^4 cells per well. The plated cells were treated 24 h. later with a DMSO solution of a compound as described herein at multiple concentrations ranging from 0.01 μM to 100 μM. The plates were examined 96 h. later under an inverted microscope, Olympus CK-2 using a 10× objective, and compound activity was noted by physical observation. When necessary, the total number of viable cells was determined by trypsinizing the wells and counting the number of viable cells, as determined by trypan blue exclusion, using a hemacytometer.

DU145 = test: Cytotoxicity on DU145 cancer cell line; type: cell-based; details: Homo sapiens, DU-145; DU145 prostate cancer; 96 h; 0.01-100 μM
Experimental: as §1

Row | SMILES | IC50 (K562) [nM] | IC50 (DU145) [nM]
1 | CN1CCN(c2ccc(Nc3ncc(/C=C/C#N)c(N)n3)cc2)CC1 [Compound 8a, 3-{4-Amino-2-[4-(4-methylpiperazin-1-yl)phenylamino]pyrimidin-5-yl}acrylonitrile] | 1000 to 25000 | 1000 to 25000
2 | CN1CCN(c2ccc(Nc3ncc(/C=C/C#N)c(Nc4ccn(C)n4)n3)cc2)CC1 [Compound 8aa, (E)-3-(4-[(1-Methyl-1H-pyrazol-3-yl)amino]-2-{[4-(4-methylpiperazin-1-yl)phenyl]amino}pyrimidin-5-yl)acrylonitrile] | 1000 to 25000 | 1000 to 25000
3 | CNc1nc(Nc2ccc(N3CCN(C)CC3)cc2)ncc1/C=C/C#N [Compound 8b, 3-{4-Methylamino-2-[4-(4-methylpiperazin-1-yl)-phenylamino]pyrimidin-5-yl}acrylonitrile] | < 1000 | 1000 to 25000
4 | COc1cc(N2CCN(C)CC2)ccc1Nc1ncc(/C=C/C#N)c(NC2CCCC2)n1 [Compound 8bb, (E)-3-[4-(Cyclopentylamino)-2-{[2-methoxy-4-(4-methylpiperazin-1-yl)phenyl]amino}pyrimidin-5-yl]acrylonitrile] | 1000 to 25000 | 1000 to 25000
5 | CCNc1nc(Nc2ccc(N3CCN(C)CC3)cc2)ncc1/C=C/C#N [Compound 8c, 3-{4-Ethylamino-2-[4-(4-methylpiperazin-1-yl)phenylamino]pyrimidin-5-yl}acrylonitrile] | < 1000 | < 1000
6 | CCCNc1nc(Nc2ccc(N3CCN(C)CC3)cc2)ncc1/C=C/C#N [Compound 8d, 3-{4-Propylamino-2-[4-(4-methylpiperazin-1-yl)phenylamino]pyrimidin-5-yl}acrylonitrile] | < 1000 | < 1000
7 | CC(C)Nc1nc(Nc2ccc(N3CCN(C)CC3)cc2)ncc1/C=C/C#N [Compound 8e, 3-{4-Isopropylamino-2-[4-(4-methylpiperazin-1-yl)phenylamino]pyrimidin-5-yl}acrylonitrile] | < 1000 | < 1000
8 | CN1CCN(c2ccc(Nc3ncc(/C=C/C#N)c(NCC4CC4)n3)cc2)CC1 [Compound 8f, 3-{4-(Cyclopropylmethyl)amino-2-[4-(4-methylpiperazin-1-yl)phenylamino]pyrimidin-5-yl}acrylonitrile] | < 1000 | < 1000
9 | CN1CCN(c2ccc(Nc3ncc(/C=C/C#N)c(NC4CC4)n3)cc2)CC1 [Compound 8g, 3-{4-Cyclopropylamino-2-[4-(4-methylpiperazin-1-yl)phenylamino]pyrimidin-5-yl}acrylonitrile] | < 1000 | < 1000
10 | CN1CCN(c2ccc(Nc3ncc(/C=C/C#N)c(NC4CCCCC4)n3)cc2)CC1 [Compound 8i, 3-{4-Cyclohexylamino-2-[4-(4-methylpiperazin-1-yl)phenylamino]pyrimidin-5-yl}acrylonitrile] | < 1000 | 1000 to 25000
11 | N#C/C=C/c1cnc(Nc2ccc(N3CCOCC3)cc2)nc1NC1CCCC1 [Compound 8j, 3-{4-Cyclopentylamino-2-[(4-morpholin-4-yl)phenylamino]pyrimidin-5-yl}acrylonitrile] | 1000 to 25000 | 1000 to 25000
12 | N#C/C=C/c1cnc(Nc2ccc3[nH]ccc3c2)nc1NC1CCCC1 [Compound 8k, 3-[4-Cyclopentylamino-2-(1H-indol-5-ylamino)pyrimidin-5-yl]acrylonitrile] | < 1000 | 1000 to 25000
13 | CN1CCC(c2ccc(Nc3ncc(/C=C/C#N)c(NC4CCCC4)n3)cc2)CC1 [Compound 8l, 3-{4-Cyclopentylamino-2-[4-(1-methylpiperidin-4-yl)phenylamino]pyrimidin-5-yl}acrylonitrile] | 1000 to 25000 | 1000 to 25000
14 | CNc1nc(Nc2ccc3[nH]ccc3c2)ncc1/C=C/C#N [Compound 8m, 3-[2-(1H-Indol-5-ylamino)-4-(methylamino)pyrimidin-5-yl]acrylonitrile] | < 1000 | < 1000
15 | COc1ccc(Nc2ncc(/C=C/C#N)c(NC3CCCC3)n2)cc1 [Compound 8n, 3-{4-(Cyclopentylamino)-2-[(4-methoxyphenyl)amino]pyrimidin-5-yl)acrylonitrile] | 1000 to 25000 | 1000 to 25000
16 | CCN1CCN(c2ccc(Nc3ncc(/C=C/C#N)c(NC4CCCC4)n3)cc2)CC1 [Compound 8o, 3-{4-Cyclopentylamino-2-[4-(1-ethylpiperazin-4-yl)-phenylamino]-pyrimidin-5-yl}acrylonitrile] | < 1000 | < 1000
17 | N#C/C=C/c1cnc(NCc2ccccc2)nc1NC1CCCC1 [Compound 8p, 3-[2-(Benzylamino)-4-(cyclopentylamino)pyrimidin-5-yl]acrylonitrile] | 25000 to 50000 | 25000 to 50000
18 | CN1CCN(c2ccc(Nc3ncc(/C=C/C#N)c(NC4CCCC4)n3)nc2)CC1 [Compound 8q, 3-(4-(Cyclopentylamino)-2-((5-(4-methylpiperazin-1-yl)pyridin-2-yl)amino)pyrimidin-5-yl)acrylonitrile] | < 1000 | < 1000
19 | N#C/C=C/c1cnc(Nc2ccc(N3CCOCC3)cc2)nc1NCC1CC1 [Compound 8r, 3-{4-[N-(Cyclopropylmethyl)amino]-2-[4-(morpholin-4-yl)phenylamino]pyrimidin-5-yl}acrylonitrile] | < 1000 | < 1000
20 | COc1ccc(Nc2ncc(/C=C/C#N)c(NCC3CC3)n2)cc1 [Compound 8s] | 1000 to 25000 | 1000 to 25000
21 | CCN1CCN(c2ccc(Nc3ncc(/C=C/C#N)c(NCC4CC4)n3)cc2)CC1 [Compound 8t, 3-{4-[(Cyclopropylmethyl)amino]-2-[4-(4-ethylpiperazin-1-yl)phenylamino]pyrimidin-5-yl}acrylonitrile] | < 1000 | < 1000
22 | N#C/C=C/c1cnc(Nc2ccc3[nH]ccc3c2)nc1NCC1CC1 [Compound 8u, 3-{4-[(Cyclopropylmethyl)amino]-2-[(1H-indol-5-yl)amino]pyrimidin-5-yl)acrylonitrile] | < 1000 | < 1000
23 | CCN(C)c1nc(Nc2ccc(N3CCN(C)CC3)cc2)ncc1/C=C/C#N [Compound 8v, 3-{4-(N-Ethyl-N-methylamino)-2-[4-(4-methylpiperazin-1-yl)phenylamino]pyrimidin-5-yl}acrylonitrile] | 25000 to 50000 | 25000 to 50000
24 | CN1CCN(c2ccc(Nc3ncc(/C=C/C#N)c(N4CCCC4)n3)cc2)CC1 [Compound 8w, 3-{2-[4-(4-Methylpiperazin-1-yl)phenylamino]-4-(pyrrolidin-1-yl)pyrimidin-5-yl}acrylonitrile] | 1000 to 25000 | 1000 to 25000
25 | CCN(c1nc(Nc2ccc(N3CCN(C)CC3)cc2)ncc1/C=C/C#N)C1CCCC1 [Compound 8x, 3-{4-(N-Cyclopentyl-N-ethylamino)-2-[4-(4-methylpiperazin-1-yl)phenylamino]pyrimidin-5-yl}acrylonitrile] | < 1000 | < 1000
26 | CN1CCN(c2ccc(N(C(=O)CCCC[C@@H]3SC[C@@H]4NC(=O)N[C@@H]43)c3ncc(/C=C/C#N)c(NC4CCCC4)n3)cc2)CC1 [Compound 8y, N-[5-(2-Cyanovinyl)-4-(cyclopentylamino)pyrimidin-2-yl]-N-[4-(4-methylpiperazin-1-yl)phenyl]-5-((3aS,4S,6aR)-2-oxohexahydro-1H-thieno[3,4-d]imidazol-4-yl)pentanamide] | 1000 to 25000 | 1000 to 25000
